Source: patent publication US20050267222A1, “Stabilized composition” (DAINIPPON PHARMACEUTICAL CO. LTD., priority 2002, published 2005)

Experiments:
[1] = Absorption of aldehyde by stabilizer (Experiment 4); assay type: physicochemical; settings: for Residual rate of formaldehyde in the cup: 25° C. for 2 days, 1 g meglumine powder enclosed
Description: Meglumine powder (1 g) was stored in a sealed stoppered glass test tube together with a cup containing an aqueous formaldehyde solution (2 ml) (containing potassium iodide for adjusting moisture) in various concentrations (see FIG. 4). For a comparative control, a cup containing an aqueous formaldehyde solution (2 ml) (containing potassium iodide for adjusting moisture) in various concentrations was put into a sealed stoppered glass test tube without meglumine. The test tubes were stored at 25° C. or 40° C. for 2 days, and the residual amount of formaldehyde in the cup was measured in a similar manner to Experiment 1.

[2] = Reaction of Compound A powder with formaldehyde vapour, related substances by HPLC (Experiment 2); assay type: physicochemical; settings: 50° C. for 14 days
Description: When Compound A powder (2 mg) was stored in a sealed stoppered glass test tube together with a cup containing an aqueous formaldehdye solution (1 ml) in various concentrations (see FIG. 2), and stored at 50° C. for 14 days, the generated amount of related substances of Compound A was measured. The generated amount of the related substances was measured by dissolving Compound A powder (2 mg) in methanol (200 ml) to give a test solution, and applying 10 μl thereof to high performance liquid chromatograph under the following conditions. The percentage ratio of the peak area of the related substances to the total peak area including that of Compound A was regarded as the generation amount thereof.
Conditions for High Performance Liquid Chromatograph:
Column: Develosil ODS-5 (inner diameter: 4.6 mm×150 mm, manufactured by NOMURA CHEMICAL CO., LTD.)
Mobile phase: Mixture of 0.01M citric acid buffer (pH 2.5):acetonitrile (75:25)
Detector: Ultraviolet-visible spectrophotometer (wave length for detection: 220 nm)
Temperature: Constant temperature around 40° C.

| Compound | Residual ratio of formaldehyde in the cup compared to without meglumine (in words) ([1]; after storage) | Residual rate of formaldehyde in the cup ([1]; formaldehyde 0.1 μg/ml) [%] | Residual rate of formaldehyde in the cup ([1]; formaldehyde 0.5 μg/ml) [%] | Residual rate of formaldehyde in the cup ([1]; formaldehyde 1 μg/ml) [%] | Generated amount of related substances ([2]; aldehyde concentration in the cup: Not detected) | Generated amount of related substances ([2]; aqueous formaldehyde in the cup 0.0625 μg/ml) | Generated amount of related substances ([2]; aqueous formaldehyde in the cup 0.125 μg/ml) [%] | Generated amount of related substances ([2]; aqueous formaldehyde in the cup 0.25 μg/ml) [%] | Generated amount of related substances ([2]; aqueous formaldehyde in the cup 0.5 μg/ml) [%] | Generated amount of related substances ([2]; aqueous formaldehyde in the cup 1.0 μg/ml) [%] |
| --- | --- | --- | --- | --- | --- | --- | --- | --- | --- | --- |
| CNC[C@H](O)[C@@H](O)[C@H](O)[C@H](O)CO [meglumine] | apparently lowered | 85.1 | 75.5 | 70.7 | – | – | – | – | – | – |
| C[C@H](Cc1c[nH]c2c(OCC(=O)O)cccc12)NC[C@H](O)c1cccc(Cl)c1 [Compound A, [3-[(2R)-[[(2R)-(3-chlorophenyl)-2-hydroxyethyl]amino]propyl]-1H-indol-7-yleoxy]acetic acid] | – | – | – | – | Not detected | Not detected | 0.031 | 0.063 | 0.091 | 0.136 |
